Experimental data published in US10792324B2, “Compositions and methods for the treatment of orthopedic ailments” (K.L.R.M., LLC, priority 2016, dated 2020).

Tests used:
[1] = system: femur fracture; test: Callus development analysis via qCT after femur fracture; type: in vivo, rat; conditions: osteotomy site
Description: As briefly mentioned above, efficacy of the present nutraceutical composition was tested. Fifty-eight male Sprague-Dawley rats (10 weeks old, body weight (BW): 344±11 g) were used for this study, which was approved by the Institutional Animal Care and Use Committee of the Charles R. Drew University of Medicine and Science. The rats were housed for one week prior to experimental procedures to permit acclimatization and then randomly assigned to three groups. The control group (n=19 rats) received 0.2 ml of vehicle composed of 10% dimethyl sulfoxide (DMSO), peanut butter and water by retro-lingual administration. The tadalafil group (n=20 rats) was given a daily oral dose of 2.0 mg/kg body weight (BW) of the PDE5 inhibitor, tadalafil (Eli Lilly, Indianapolis, Ind.), mixed with vehicle. […] The COMB-4 group (Naturex, […]=19 rats), that is, the group receiving the nutraceutical composition in accordance with the present invention, received a combination of Muira puama (45 mg/kg body weight BW), Paullinia cupana (45 mg/kg BW), ginger (45 mg/kg BW) and L-citrulline (133 mg/kg BW) dissolved in vehicle. The appropriate rat dose of each of the four components of COMB-4 was calculated based on the equivalent recommended human daily dose as previously reported. See International Patent Publication Number WO 2012/067745 A 1 for more details on the ingredients in COMB-4, ranges of ingredients, and the beneficial effects thereof in treating Erectile Dysfunction and cardiovascular disease. All animals received the vehicle only for the three days prior to surgery to get the animals adapted to the taste, and began receiving either their respectively assigned control or experimental daily dose of tadalafil or COMB-4 on the same day right after the fracture (day 0). All surgeries were performed by one orthopedic surgeon who was blinded to the rats' experimental assignment. Anesthesia was induced with 3% isoflurane and maintained with 2.5% isoflurane throughout the surgery. All rats received subcutaneous injections of buprenorphine 0.05 mg/kg body weight for pre- and post-operative pain control. Each rat then underwent a unilateral femur fracture with internal fixation. […] The underlying fascia was incised at the medial patellar tendon border and the patella was dislocated laterally. The trochlea was opened with a 1.0 mm drill bit and the intramedullary canal and greater trochanter were […] 21-3 gauge hypodermic needle. The intramedullary canal was sequentially […] 18-gauge needle, and the epicondyle was further opened with a 16-gauge needle. The femoral shaft was accessed by sweeping the vastus medialis laterally. A cat claw scissors (Petco, San Diego, Calif.) placed at the junction of the middle and distal one-third of the femoral shaft was used to make a transverse fracture. A randomizer table was used to determine laterality of the osteotomy. While maintaining control of both fracture fragments, a titanium compression intramedullary screw ([…], Davos, Switzerland) was applied in a retrograde manner while directly visualizing the fracture reduction. […] The fascia and skin were closed in two layers utilizing 4-0 Vicryl (Ethicon Inc., Somerville, N.J.) and VetBond skin glue (3M, St. Paul, Minn.). A small amount of triple antibiotic ointment ([…].) was applied to the skin. Range of motion at the hip and knee was performed to ensure there was no penetration of the screw proximally and that the patella was adequately tracking. Unprotected weight bearing was permitted immediately postoperatively, and on day 14, 5 rats from each group were euthanized using inhalational CO2 and femora were harvested for qCT (quantitative computerized tomography) and histological evaluation. On day 42, fifteen (15) rats from each group were euthanized for qCT and histological evaluation. The remaining rats were euthanized for biomechanical testing. Mineral Content and Callus Volume. […]

[2] = system: femur fracture; test: Biomechanical evaluation (torsion to failure) of healing femur fracture; type: in vivo, rat
Description: As briefly mentioned above, efficacy of the present nutraceutical composition was tested. Fifty-eight male Sprague-Dawley rats (10 weeks old, body weight (BW): 344±11 g) were used for this study, which was approved by the Institutional Animal Care and Use Committee of the Charles R. Drew University of Medicine and Science. The rats were housed for one week prior to experimental procedures to permit acclimatization and then randomly assigned to three groups. The control group (n=19 rats) received 0.2 ml of vehicle composed of 10% dimethyl sulfoxide (DMSO), peanut butter and water by retro-lingual administration. The tadalafil group (n=20 rats) was given a daily oral dose of 2.0 mg/kg body weight (BW) of the PDE5 inhibitor, tadalafil (Eli Lilly, Indianapolis, Ind.), mixed with vehicle. […] The COMB-4 group (Naturex, […]=19 rats), that is, the group receiving the nutraceutical composition in accordance with the present invention, received a combination of Muira puama (45 mg/kg body weight BW), Paullinia cupana (45 mg/kg BW), ginger (45 mg/kg BW) and L-citrulline (133 mg/kg BW) dissolved in vehicle. The appropriate rat dose of each of the four components of COMB-4 was calculated based on the equivalent recommended human daily dose as previously reported. See International Patent Publication Number WO 2012/067745 A 1 for more details on the ingredients in COMB-4, ranges of ingredients, and the beneficial effects thereof in treating Erectile Dysfunction and cardiovascular disease. All animals received the vehicle only for the three days prior to surgery to get the animals adapted to the taste, and began receiving either their respectively assigned control or experimental daily dose of tadalafil or COMB-4 on the same day right after the fracture (day 0). All surgeries were performed by one orthopedic surgeon who was blinded to the rats' experimental assignment. Anesthesia was induced with 3% isoflurane and maintained with 2.5% isoflurane throughout the surgery. All rats received subcutaneous injections of buprenorphine 0.05 mg/kg body weight for pre- and post-operative pain control. Each rat then underwent a unilateral femur fracture with internal fixation. […] The underlying fascia was incised at the medial patellar tendon border and the patella was dislocated laterally. The trochlea was opened with a 1.0 mm drill bit and the intramedullary canal and greater trochanter were […] 21-3 gauge hypodermic needle. The intramedullary canal was sequentially […] 18-gauge needle, and the epicondyle was further opened with a 16-gauge needle. The femoral shaft was accessed by sweeping the vastus medialis laterally. A cat claw scissors (Petco, San Diego, Calif.) placed at the junction of the middle and distal one-third of the femoral shaft was used to make a transverse fracture. A randomizer table was used to determine laterality of the osteotomy. While maintaining control of both fracture fragments, a titanium compression intramedullary screw ([…], Davos, Switzerland) was applied in a retrograde manner while directly visualizing the fracture reduction. […] The fascia and skin were closed in two layers utilizing 4-0 Vicryl (Ethicon Inc., Somerville, N.J.) and VetBond skin glue (3M, St. Paul, Minn.). […] Unprotected weight bearing was permitted immediately postoperatively, and on day 14, 5 rats from each group were euthanized using inhalational CO2 and femora were harvested for qCT (quantitative computerized tomography) and histological evaluation. […]

[3] = Newly formed Total Callus (>299 mg/cm^3), Day 14, mean ± S.D.
[4] = Newly formed Total Callus (>299 mg/cm^3), Day 42, mean ± S.D.
[5] = Newly formed Total Callus (>500 mg/cm^3), Day 14, mean ± S.D.
[6] = Newly formed Total Callus (>500 mg/cm^3), Day 42, mean ± S.D.
[7] = day 42, relative to control group
[8] = day 42, torsion test, mean ± S.D.

In the case of `CN1CC(=O)N2[C@H](c3ccc4c(c3)OCO4)c3[nH]c4ccccc4c3C[C@@H]2C1=O` [Tadalafil, tadalafil], the “Bone Density” value [1, 3] is reported as 458.4 ± 29.2 mg/mL, the “Callus Volume” value [1, 3] is reported as 44.9 ± 11.7 mm^3 and the “Mineral Content” value [1, 3] is reported as 20.8 ± 6.3 mg. For the same compound, the “Bone Density” value [1, 4] was 510.0 ± 18.9 mg/mL, the “Callus Volume” value [1, 4] was 66.3 ± 22.3 mm^3 and the “Mineral Content” value [1, 4] was 34.1 ± 12.7 mg. For the same compound, the “Callus Volume” value [1, 5] was 16.4 ± 4.7 mm^3, the “Mineral Content” value [1, 5] was 11.0 ± 3.8 mg and the “Callus Volume” value [1, 6] was 35.6 ± 12.6 mm^3. For the same compound, the “Mineral Content” value [1, 6] was 24.1 ± 8.3 mg, the “Bone Density” value ([1]; Newly formed Total Callus, Day 14, mean ± S.D.) was 665.0 ± 2.0 mg/mL and the “Bone Density” value ([1]; Newly formed Total Callus, Day 42, mean ± S.D.) was 697.2 ± 12.4 mg/mL. For the same compound, the “higher maximum strength (maximum torque) than control group” value [2, 7] was 15%, the “higher stiffness than control group” value [2, 7] was 28% and the “Maximum Torque” value [2, 8] was 326.8 ± 138.0 Nmm. The “Torsional Stiffness” value [2, 8] was 59.9 ± 31.1 Nmm/Deg and the “Fracture Repair Stage (I, II, III or IV)” value ([2]; day 42, torsion test, mean ± S.D., I = 1, II = 2, III = 3, IV = 4) was 2.4 ± 0.5.
